# Assays:
# [1] = biological target: T1, Neuromedin-K receptor (Homo sapiens, UniProt P29371); assay: Binding affinity towards cloned human Tachykinin receptor 3 (hNK-3) expressed in CHO cells using [125I][MePhe7]-NKB; type: cell-based
# T1 sequence (P29371 whole entry): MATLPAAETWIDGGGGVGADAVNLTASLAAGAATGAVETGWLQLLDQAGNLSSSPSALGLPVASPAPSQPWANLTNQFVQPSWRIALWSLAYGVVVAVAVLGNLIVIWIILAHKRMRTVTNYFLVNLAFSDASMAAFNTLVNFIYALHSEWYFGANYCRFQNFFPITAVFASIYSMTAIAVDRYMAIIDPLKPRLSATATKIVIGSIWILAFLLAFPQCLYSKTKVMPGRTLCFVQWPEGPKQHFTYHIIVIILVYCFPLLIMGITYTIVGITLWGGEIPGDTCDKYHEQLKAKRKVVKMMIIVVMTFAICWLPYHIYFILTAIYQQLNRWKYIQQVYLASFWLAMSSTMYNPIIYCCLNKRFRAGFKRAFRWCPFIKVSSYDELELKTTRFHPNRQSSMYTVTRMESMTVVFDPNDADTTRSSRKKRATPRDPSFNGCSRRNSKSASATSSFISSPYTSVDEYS
# [2] = biological target: T2, Substance-K receptor (Homo sapiens, UniProt P21452); assay: Binding affinity towards cloned human Tachykinin receptor 2 (hNK-2) expressed in CHO cells using [125I]NKA
# T2 sequence (P21452 whole entry): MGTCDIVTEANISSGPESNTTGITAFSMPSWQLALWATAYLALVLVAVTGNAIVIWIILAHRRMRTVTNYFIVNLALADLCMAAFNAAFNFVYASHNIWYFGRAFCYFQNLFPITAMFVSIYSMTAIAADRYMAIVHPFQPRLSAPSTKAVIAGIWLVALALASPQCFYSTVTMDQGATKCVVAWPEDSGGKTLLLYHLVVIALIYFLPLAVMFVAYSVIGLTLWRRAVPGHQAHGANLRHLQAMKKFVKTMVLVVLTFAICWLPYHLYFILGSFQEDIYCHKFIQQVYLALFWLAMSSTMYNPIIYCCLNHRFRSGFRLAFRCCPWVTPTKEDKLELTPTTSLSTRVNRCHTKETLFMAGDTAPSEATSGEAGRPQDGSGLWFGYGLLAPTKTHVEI
# [3] = biological target: Substance-P receptor (Homo sapiens, UniProt P25103); assay: Binding affinity towards cloned human Tachykinin receptor 1 (hNK-1) expressed in CHO cells using [3H]substance P
# [4] = biological target: Neuromedin-K receptor (Oryctolagus cuniculus); assay: In vitro functional activity as antagonism of senktide-induced contractions in RISM (Rabbit Isolated Iris Sphincter Muscle) containing NK-3 receptor
# Chain of Substance-P receptor (P25103 whole entry): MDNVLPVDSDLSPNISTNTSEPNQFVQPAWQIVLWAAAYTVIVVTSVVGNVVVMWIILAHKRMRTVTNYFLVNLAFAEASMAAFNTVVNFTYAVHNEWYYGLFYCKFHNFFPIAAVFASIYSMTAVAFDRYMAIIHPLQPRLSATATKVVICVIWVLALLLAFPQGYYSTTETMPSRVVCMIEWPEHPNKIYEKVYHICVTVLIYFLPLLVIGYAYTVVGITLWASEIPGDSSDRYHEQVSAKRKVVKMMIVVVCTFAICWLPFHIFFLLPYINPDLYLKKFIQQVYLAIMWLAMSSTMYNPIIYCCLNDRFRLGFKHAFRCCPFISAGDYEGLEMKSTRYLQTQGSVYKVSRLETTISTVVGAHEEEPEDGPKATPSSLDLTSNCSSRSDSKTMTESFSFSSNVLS
Structure (SMILES),Ki [1],also measured
"CCC(NC(=O)c1c(OCC(N)=O)c(-c2ccccc2)nc2ccccc12)c1ccccc1 (single isomer, unassigned)",0.0063 µM,–
CCC(NC(=O)c1c(-c2ccccc2)c(-c2ccccc2)nc2ccccc12)c1ccccc1 (stereo not drawn),0.0453 µM,–
"CCC(NC(=O)c1c(OCCN)c(-c2ccccc2)nc2ccccc12)c1ccccc1 (single isomer, unassigned)",0.0047 µM,–
O=C(NC(CO)c1ccccc1)c1cc(-c2ccccc2)nc2ccccc12 (stereo not drawn),0.207 µM,–
CCCCc1c(-c2ccccc2)nc2ccccc2c1C(=O)NC(CC)c1ccccc1 (stereo not drawn),0.0152 µM,–
O=C(NC(CCO)c1ccccc1)c1cc(-c2ccccc2)nc2ccccc12 (stereo not drawn),0.382 µM,–
O=C(NC(c1ccccc1)c1ccccc1)c1cc(-c2ccccc2)nc2ccccc12,0.134 µM,–
COCC(NC(=O)c1cc(-c2ccccc2)nc2ccccc12)c1ccccc1 (stereo not drawn),0.314 µM,–
CCCC(NC(=O)c1cc(-c2ccccc2)nc2ccccc12)c1ccccc1 (stereo not drawn),0.0472 µM,–
CC[C@@H](NC(=O)c1cc(-c2ccccc2)nc2ccccc12)c1ccccc1,–,Ki [2]: 0.237 µM; Ki [3]: > 100 µM
"CCC(NC(=O)c1c(Br)c(-c2ccccc2)nc2ccccc12)c1ccccc1 (single isomer, unassigned)",0.0372 µM,–
"CCC(NC(=O)c1c(OC)c(-c2ccccc2)nc2ccccc12)c1ccccc1 (single isomer, unassigned) [listing 1 of 2 here]",0.0018 µM,Ki [2]: 0.329 µM; Ki [3]: > 100 µM
COC(=O)CC(NC(=O)c1cc(-c2ccccc2)nc2ccccc12)c1ccccc1 (stereo not drawn),0.973 µM,–
NC[C@@H](NC(=O)c1cc(-c2ccccc2)nc2ccccc12)c1ccccc1,1.14 µM,–
CCc1c(-c2ccccc2)nc2ccccc2c1C(=O)N[C@H](CC)c1ccccc1,–,Ki [2]: 0.316 µM; Ki [3]: > 100 µM
CN(C)C(=O)C(NC(=O)c1cc(-c2ccccc2)nc2ccccc12)c1ccccc1 (stereo not drawn),0.488 µM,–
CN(C)C[C@@H](NC(=O)c1cc(-c2ccccc2)nc2ccccc12)c1ccccc1,1.07 µM,–
"CCC(NC(=O)c1c(NC(=O)CN(C)C)c(-c2ccccc2)nc2ccccc12)c1ccccc1 (single isomer, unassigned)",0.0107 µM,–
CC(NC(=O)c1cc(-c2ccccc2)nc2ccccc12)c1ccccc1 (stereo not drawn),0.264 µM,–
"CCC(NC(=O)c1c(OCCN(C)C)c(-c2ccccc2)nc2ccccc12)c1ccccc1 (single isomer, unassigned)",0.0057 µM,–
CC(=O)C(NC(=O)c1cc(-c2ccccc2)nc2ccccc12)c1ccccc1 (stereo not drawn),0.0274 µM,–
"CCC(NC(=O)c1c(OCCN2CCCC2)c(-c2ccccc2)nc2ccccc12)c1ccccc1 (single isomer, unassigned)",0.0068 µM,–
"CCC(NC(=O)c1c(OC)c(-c2ccccc2)nc2ccccc12)c1ccccc1 (single isomer, unassigned) [listing 2 of 2 here]",–,Kb [4]: 0.0018 µM
O=C(NC(c1ccccc1)C(F)(F)F)c1cc(-c2ccccc2)nc2ccccc12 (stereo not drawn),0.454 µM,–

Structure (SMILES),Ki [1],also measured
CCCc1c(-c2ccccc2)nc2ccccc2c1C(=O)NC(CC)c1ccccc1 (stereo not drawn),0.0137 µM,–
CNC(=O)C(NC(=O)c1cc(-c2ccccc2)nc2ccccc12)c1ccccc1 (stereo not drawn),0.426 µM,–
CC[C@@H](NC(=O)c1c(C)c(-c2ccccc2)nc2ccccc12)c1ccccc1,–,Ki [2]: 0.277 µM; Ki [3]: > 100 µM
CC(C)(NC(=O)c1cc(-c2ccccc2)nc2ccccc12)c1ccccc1,0.295 µM,–
O=C(N[C@H](C(=O)O)c1ccccc1)c1cc(-c2ccccc2)nc2ccccc12,1.65 µM,–
CC[C@@H](NC(=O)c1c(OCC(=O)N(C)C)c(-c2ccccc2)nc2ccccc12)c1ccccc1,0.0024 µM,–
CC[C@@H](NC(=O)c1c(OCC(=O)O)c(-c2ccccc2)nc2ccccc12)c1ccccc1,–,Ki [2]: 0.214 µM; Ki [3]: > 100 µM
NC(=O)C(NC(=O)c1cc(-c2ccccc2)nc2ccccc12)c1ccccc1 (stereo not drawn),0.983 µM,–
CCCCCCc1c(-c2ccccc2)nc2ccccc2c1C(=O)NC(CC)c1ccccc1 (stereo not drawn),0.0554 µM,–
"CCC(NC(=O)c1c(OCCCN(C)C)c(-c2ccccc2)nc2ccccc12)c1ccccc1 (single isomer, unassigned)",0.0086 µM,–
"CCOC(=O)COc1c(-c2ccccc2)nc2ccccc2c1C(=O)NC(CC)c1ccccc1 (single isomer, unassigned)",0.002 µM,–
CC[C@@H](NC(=O)c1c(OCCO)c(-c2ccccc2)nc2ccccc12)c1ccccc1,0.0015 µM,Ki [2]: 0.082 µM; Ki [3]: > 100 µM
CCC(NC(=O)c1c(OC)c(-c2ccccc2)nc2ccccc12)c1ccccc1 (stereo not drawn),0.0058 µM,–
O=C(NC1(c2ccccc2)CCCC1)c1cc(-c2ccccc2)nc2ccccc12,0.129 µM,–
"CCC(NC(=O)c1c(NC(C)=O)c(-c2ccccc2)nc2ccccc12)c1ccccc1 (single isomer, unassigned)",0.0159 µM,–
CC[C@@H](NC(=O)c1c(Cl)c(-c2ccccc2)nc2ccccc12)c1ccccc1,0.0299 µM,–
CC(C)C(NC(=O)c1cc(-c2ccccc2)nc2ccccc12)c1ccccc1 (stereo not drawn),0.0743 µM,–
CCCCCCCC(NC(=O)c1cc(-c2ccccc2)nc2ccccc12)c1ccccc1 (stereo not drawn),4.87 µM,–
CC[C@@H](NC(=O)c1c(CN(C)C)c(-c2ccccc2)nc2ccccc12)c1ccccc1,0.0022 µM,Ki [2]: 0.172 µM; Ki [3]: > 100 µM
CC[C@@H](NC(=O)c1c(F)c(-c2ccccc2)nc2ccccc12)c1ccccc1,0.0303 µM,–
CC[C@@H](NC(=O)c1c(N)c(-c2ccccc2)nc2ccccc12)c1ccccc1,–,Ki [2]: 0.111 µM; Ki [3]: > 100 µM
O=C(NC(Cc1ccccc1)c1ccccc1)c1cc(-c2ccccc2)nc2ccccc12 (stereo not drawn),3.51 µM,–
CCCCC(NC(=O)c1cc(-c2ccccc2)nc2ccccc12)c1ccccc1 (stereo not drawn),0.146 µM,–

# — ChEMBL document CHEMBL1132609, “Discovery of a novel class of selective non-peptide antagonists for the human neurokinin-3 receptor. 2. Identification of (S)-N-(1-phenylpropyl)-3-hydroxy-2-phenylquinoline-4-carboxamide (SB 223412)” (J Med Chem, 1999)
